# Experimental data from article PMC4467886 (Archives of biochemistry and biophysics, 2008).
# Molecular target: T1, 5,10-methenyltetrahydrofolate synthetase (MTHFS) (Mus musculus, UniProt Q9D110)
# T1 sequence (Q9D110 2-203): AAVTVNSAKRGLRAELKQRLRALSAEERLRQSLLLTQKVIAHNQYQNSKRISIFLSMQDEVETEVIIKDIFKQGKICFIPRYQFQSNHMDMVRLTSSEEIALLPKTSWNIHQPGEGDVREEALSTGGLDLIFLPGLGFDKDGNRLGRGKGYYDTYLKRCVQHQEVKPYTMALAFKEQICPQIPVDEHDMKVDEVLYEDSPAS
# Experiment: spectrophotometric MTHFS activity assay
# Type: biochemical
row,SMILES,Ki [µM]
1,Nc1nc2c(c(=O)[nH]1)C[C@@H](CCc1ccc(C(=O)N[C@@H](CCC(=O)O)C(=O)O)s1)CN2 [LY309887],6 ± 1
2,Nc1nc2c(c(=O)[nH]1)C[C@@H](CCc1ccc(C(=O)N[C@@H](CCC(=O)O)C(=O)O)cc1)CN2 [Lometrexol],9 ± 3
3,Nc1nc2[nH]cc(CCc3ccc(C(=O)N[C@@H](CCC(=O)O)C(=O)O)cc3)c2c(=O)[nH]1 [Pemetrexed],48 ± 11
